Data published in PMC12559910, “A New N6‐Methyladenosine Inhibitor, Celastrol, Alleviates Rheumatoid Arthritis via Targeting IGF2BP3” (MedComm, 2025).

Biological target: T1, recombinant IGF2BP3 protein (Homo sapiens, UniProt O00425)
T1 construct: recombinant, amine-coupled to CM5 chip
Assay: SPR (Biacore T200, CM5 chip, steady-state fit)
Type: binding

T1 sequence (O00425 whole entry): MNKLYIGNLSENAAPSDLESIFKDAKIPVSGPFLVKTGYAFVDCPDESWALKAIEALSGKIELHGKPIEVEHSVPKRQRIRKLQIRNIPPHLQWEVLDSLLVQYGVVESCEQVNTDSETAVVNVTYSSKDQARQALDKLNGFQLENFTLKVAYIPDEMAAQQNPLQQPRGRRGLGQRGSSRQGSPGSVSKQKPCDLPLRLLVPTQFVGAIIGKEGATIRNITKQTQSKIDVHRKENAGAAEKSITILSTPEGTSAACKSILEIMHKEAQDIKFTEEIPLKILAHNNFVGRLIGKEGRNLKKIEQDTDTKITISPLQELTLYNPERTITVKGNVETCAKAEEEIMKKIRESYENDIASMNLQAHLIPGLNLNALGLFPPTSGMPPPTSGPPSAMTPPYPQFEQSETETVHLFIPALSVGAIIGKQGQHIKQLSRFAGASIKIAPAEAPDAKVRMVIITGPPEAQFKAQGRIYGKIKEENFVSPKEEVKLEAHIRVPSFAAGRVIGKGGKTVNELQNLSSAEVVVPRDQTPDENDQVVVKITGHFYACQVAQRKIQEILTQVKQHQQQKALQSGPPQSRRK

CC1=C(O)C(=O)C=C2C1=CC=C1[C@@]2(C)CC[C@@]2(C)[C@@H]3C[C@](C)(C(=O)O)CC[C@]3(C)CC[C@]12C [celastrol]
Kd: 1650 nM
